According to US20240287138A1, “CYCLIC PEPTIDES FOR INHIBITING TNF RECEPTOR 1 ACTIVITY” (Merck Sharp & Dohme LLC, priority 2023, published 2024):
pIC50: −log10 of the molar value. Numbered stars: 1 amine (or outer) side, 2 acyl side, 3 side chain; on linkers, the order of the positions; unused ones are H or OH. Bridge positions count the residues as written; N and C are the ends. Square brackets hold non-standard residues; d marks the D form. Peptide text beside a SMILES is read from it. * marks the point of attachment. Trp(βS-Me,7-OMe) = COc1cccc2c([C@H](C)[C@H](N)C(=O)O)c[nH]c12; Morpholine(3S-CO,6,6-Me2) = CC1(C)CN[C@H](C(=O)O)CO1; dPro(trans-4-NMe2) = CN(C)[C@@H]1CN[C@@H](C(=O)O)C1; Trp(7-Br) = N[C@@H](Cc1c[nH]c2c(Br)cccc12)C(=O)O; Trp(7-CN) = N#Cc1cccc2c(C[C@H](N)C(=O)O)c[nH]c12; Trp(7-Cl) = N[C@@H](Cc1c[nH]c2c(Cl)cccc12)C(=O)O; X15 = C[C@H](c1ccc(O)cc1)[C@H](N[*:1])C(=O)[*:2]; Phe(3-CONH2) = NC(=O)c1cccc(C[C@H](N)C(=O)O)c1; Phe(4-CONH2) = NC(=O)c1ccc(C[C@H](N)C(=O)O)cc1; Phe(4-COOH) = N[C@@H](Cc1ccc(C(=O)O)cc1)C(=O)O; Trp(7-aza) = N[C@@H](Cc1c[nH]c2ncccc12)C(=O)O; Pip(5R-OH) = O=C(O)[C@@H]1CC[C@@H](O)CN1; X1 = O=C([C@@H]1CC[C@H](N[*:1])C1)[*:2]; d(cisHyp) = O=C(O)[C@H]1C[C@@H](O)CN1; X31 = O=C(CN(CCc1nnco1)[*:1])[*:2]; Pip(4-aza) = O=C(O)[C@@H]1CNCCN1; 4Pal = N[C@@H](Cc1ccncc1)C(=O)O; NMeE = CN[C@@H](CCC(=O)O)C(=O)O; dHyp = O=C(O)[C@H]1C[C@H](O)CN1; Ahp(2) = CCCCC[C@H](N)C(=O)O; αMeS = C[C@](N)(CO)C(=O)O; Carboxymethyl = O=C(O)C*; Nle = CCCC[C@H](N)C(=O)O; Sar = CNCC(=O)O

Target: T1, TNFα-induced NF-κB signal transduction pathway (TNFR1 signaling) in THP-1 cells (Homo sapiens, UniProt P19438)
T1 sequence (P19438 30-455): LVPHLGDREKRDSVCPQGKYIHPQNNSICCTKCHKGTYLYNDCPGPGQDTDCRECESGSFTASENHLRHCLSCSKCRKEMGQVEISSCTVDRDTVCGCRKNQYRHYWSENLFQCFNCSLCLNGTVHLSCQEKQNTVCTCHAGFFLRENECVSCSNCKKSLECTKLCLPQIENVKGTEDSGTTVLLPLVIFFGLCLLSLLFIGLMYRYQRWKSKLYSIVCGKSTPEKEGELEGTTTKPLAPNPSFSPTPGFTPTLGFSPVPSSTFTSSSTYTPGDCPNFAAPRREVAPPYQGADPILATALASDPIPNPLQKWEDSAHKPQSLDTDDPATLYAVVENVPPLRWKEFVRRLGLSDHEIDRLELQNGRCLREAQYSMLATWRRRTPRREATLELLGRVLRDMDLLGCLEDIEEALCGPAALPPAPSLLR
Assay: THP-1 Lucia NF-κB reporter cell assay, inhibition of TNFα-induced NF-κB signaling
Type: cell-based
Conditions: THP-1 NF-κB Lucia reporter cells, 10 ng/mL TNFα, 16-18 h, secreted luciferase; read-out: THP-1 IC50
How it was run: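 THP-1 Lucia NF-κB cells, 20k/well, no selection antibiotics; peptide pre-inc 1 h 37 °C; + recombinant human TNFα 10 ng/mL final; o.n.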

SMILES | pIC50
CCCCC[C@@H]1NC(=O)[C@@H]2CC[C@@H](C2)NC(=O)[C@H]([C@@H](C)c2c[nH]c3c(OC)cccc23)NC(=O)CN(C)C(=O)[C@H](Cc2cccc(C(N)=O)c2)NC(=O)[C@H](Cc2ccc(C(N)=O)cc2)NC(=O)[C@](C)(CO)NC(=O)[C@H](Cc2c[nH]c3c(Br)cccc23)NC(=O)[C@H](Cc2ccc(C(=O)O)cc2)NC(=O)[C@H](CC(N)=O)NC(=O)[C@H]2C[C@H](O)CN2C(=O)[C@H](Cc2c[nH]c3ccccc23)NC(=O)[C@@H]2CNCCN2C(=O)[C@H](Cc2ccncc2)NC1=O [SEQ ID NO. 109] (cyclo([4Pal][Pip(4-aza)]W[dHyp]N[Phe(4-COOH)][Trp(7-Br)][αMeS][Phe(4-CONH2)][Phe(3-CONH2)][Sar][Trp(βS-Me,7-OMe)][X1][Ahp(2)])) | 9.10
CCCC[C@@H]1NC(=O)CSC[C@@H](C(N)=O)NC(=O)[C@H]([C@@H](C)c2c[nH]c3c(OC)cccc23)NC(=O)CN(C)C(=O)[C@H](Cc2ccc(O)cc2)NC(=O)[C@H](Cc2ccc(C(=O)O)cc2)NC(=O)[C@](C)(CO)NC(=O)[C@H](Cc2c[nH]c3c(Cl)cccc23)NC(=O)[C@H](Cc2ccncc2)NC(=O)[C@H](CC(N)=O)NC(=O)[C@H](CCC(=O)O)N(C)C(=O)[C@H](Cc2c[nH]c3ncccc23)NC(=O)[C@H](CO)NC(=O)[C@H]([C@H](C)c2ccc(O)cc2)NC1=O [SEQ ID NO. 243] ({CH2CO}-[Nle][X15]S[Trp(7-aza)][NMeE]N[4Pal][Trp(7-Cl)][αMeS][Phe(4-COOH)]Y[Sar][Trp(βS-Me,7-OMe)]C-NH2; thioether N-14) | 8.49
CCCC[C@@H]1NC(=O)CSC[C@@H](C(N)=O)NC(=O)[C@H]([C@@H](C)c2c[nH]c3c(OC)cccc23)NC(=O)CN(C)C(=O)[C@H](Cc2ccc(O)cc2)NC(=O)[C@H](Cc2ccc(C(=O)O)cc2)NC(=O)[C@](C)(CO)NC(=O)[C@H](Cc2c[nH]c3c(Cl)cccc23)NC(=O)[C@H](Cc2ccc(OCC(=O)O)cc2)NC(=O)[C@H](CC(N)=O)NC(=O)[C@H](CCC(=O)O)N(C)C(=O)[C@H](Cc2c[nH]c3ccccc23)NC(=O)[C@@H]2COC(C)(C)CN2C(=O)[C@H](Cc2ccncc2)NC1=O [SEQ ID NO. 179] ({CH2CO}-[Nle][4Pal][Morpholine(3S-CO,6,6-Me2)]W[NMeE]NY(Carboxymethyl)[Trp(7-Cl)][αMeS][Phe(4-COOH)]Y[Sar][Trp(βS-Me,7-OMe)]C-NH2; thioether N-14) | 8.62
CCCC[C@@H]1NC(=O)CSC[C@@H](C(N)=O)NC(=O)[C@H]([C@@H](C)c2c[nH]c3c(OC)cccc23)NC(=O)CN(C)C(=O)[C@H](Cc2ccc(O)cc2)NC(=O)[C@H](Cc2ccc(C(=O)O)cc2)NC(=O)[C@](C)(CO)NC(=O)[C@H](Cc2c[nH]c3c(Cl)cccc23)NC(=O)[C@H](Cc2ccncc2)NC(=O)[C@H](CC(N)=O)NC(=O)[C@H]2C[C@@H](O)CN2C(=O)[C@H](Cc2c[nH]c3ncccc23)NC(=O)[C@@H]2CNCCN2C(=O)[C@H](Cc2ccncc2)NC1=O [SEQ ID NO. 261] ({CH2CO}-[Nle][4Pal][Pip(4-aza)][Trp(7-aza)][d(cisHyp)]N[4Pal][Trp(7-Cl)][αMeS][Phe(4-COOH)]Y[Sar][Trp(βS-Me,7-OMe)]C-NH2; thioether N-14) | 8.57
CCCC[C@@H]1NC(=O)[C@@H]2CC[C@@H](C2)NC(=O)[C@H]([C@@H](C)c2c[nH]c3c(OC)cccc23)NC(=O)CN(C)C(=O)[C@H](Cc2ccc(C(=O)O)cc2)NC(=O)[C@H](Cc2ccc(C(N)=O)cc2)NC(=O)[C@](C)(CO)NC(=O)[C@H](Cc2c[nH]c3c(C#N)cccc23)NC(=O)[C@H](Cc2ccncc2)NC(=O)[C@H](CC(N)=O)NC(=O)CN(CCc2nnco2)C(=O)[C@H](Cc2c[nH]c3ncccc23)NC(=O)[C@@H]2CC[C@@H](O)CN2C(=O)[C@H](Cc2ccncc2)NC1=O [SEQ ID NO. 121] (cyclo([4Pal][Trp(7-CN)][αMeS][Phe(4-CONH2)][Phe(4-COOH)][Sar][Trp(βS-Me,7-OMe)][X1][Nle][4Pal][Pip(5R-OH)][Trp(7-aza)][X31]N)) | 9.05
CCCCC[C@@H]1NC(=O)[C@@H]2CC[C@@H](C2)NC(=O)[C@H]([C@@H](C)c2c[nH]c3c(OC)cccc23)NC(=O)CN(C)C(=O)[C@H](Cc2cccc(C(N)=O)c2)NC(=O)[C@H](Cc2ccc(C(N)=O)cc2)NC(=O)[C@](C)(CO)NC(=O)[C@H](Cc2c[nH]c3c(C#N)cccc23)NC(=O)[C@H](Cc2ccc(C(=O)O)cc2)NC(=O)[C@H](CC(N)=O)NC(=O)[C@H]2C[C@H](N(C)C)CN2C(=O)[C@H](Cc2c[nH]c3ccccc23)NC(=O)[C@@H]2CC[C@@H](O)CN2C(=O)[C@H](Cc2ccncc2)NC1=O [SEQ ID NO. 128] (cyclo([4Pal][Pip(5R-OH)]W[dPro(trans-4-NMe2)]N[Phe(4-COOH)][Trp(7-CN)][αMeS][Phe(4-CONH2)][Phe(3-CONH2)][Sar][Trp(βS-Me,7-OMe)][X1][Ahp(2)])) | 9.10
